From patent publication US5070210A, “Novel ketenimines as intermediates for insecticides” (ICI Americas Inc., priority 1990, dated 1991)

What was measured:
Assay type in all cases: in vivo
[1] = tested on: Housefly [Musca domestica]; test: Housefly insecticidal test; conditions: μg per 25 female flies; mortality after 48 hours
Outline: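 Acetone solutions (with 0.01% peanut oil) dried onto dish bottoms, then 25 female flies, 1-2 days old, caged over the residue with sugar water. Mortality scored at 48 hours; LC50 from dosage-mortality curves, in μg per 25 female flies, top level 100 μg.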

[2] = tested on: Tobacco Budworm [Heliothis virescens (Fabricius)] larvae; test: Tobacco budworm contact test; conditions: second-instar larvae, percent in solution, 5 days
Outline: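 Cotton cotyledons dipped 2–3 s in compound in 50-50 acetone-water, dried, then infested with 5 second-instar larvae and held 5 days at high humidity. Mortality scored; LC50 from dosage-mortality curves, expressed as percent compound in solution, concentrations from 0.1% downward.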

[3] = tested on: Tobacco Budworm [Heliothis virescens (Fabricius)] eggs; test: Tobacco budworm egg test; conditions: 2-day old eggs, percent in solution
Outline: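 2-day eggs on paper towel, acetone dip, 0.1% and below; petri dish with larval diet, 78° F. Mortality read after control hatch and larval feeding. LC50 = % compound in solution, from dose-mortality curve.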

[4] = tested on: Beet Armyworm (Spodoptera exigua); test: Beet armyworm insecticidal test; conditions: second-instar larvae, percent in solution; five days
Outline: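 Sugar beet leaves dipped 2–3 s in compound diluted in 50:50 acetone-water, dried, then infested with five second-instar larvae in humid petri dishes. Mortality scored at 5 days; concentrations from 0.1% downward. LC50 from dosage-mortality curves, expressed as percent compound in solution.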

[5] = tested on: Cabbage Looper [Trichoplusia ni (Hubner)]; test: Cabbage looper insecticidal test; conditions: second-instar larvae, percent in solution; 3-5 days
Outline: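 LC50 values, given as percent test compound in solution, were calculated from dosage-mortality curves. Squash cotyledons were immersed 2-3 s in acetone-water (50-50) dilutions starting at 0.1%, dried on a screen, then infested with five second-instar larvae. Mortality was read 3-5 days on.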

[6] = tested on: Aster Leafhopper [Macrosteles fascifrens (Stal)]; test: Aster leafhopper insecticidal test; conditions: adults/nymphs, percent in solution; 48 hours
Outline: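 Three ~10 cm oat seedlings per cup were dipped 2-3 seconds in 50-50 acetone-water compound solutions, dried, and caged with ten adult/nymph leafhoppers. Mortality was counted after 48 hours at concentrations from 0.05% downward. LC50, as percent compound in solution, came from dosage-mortality curves.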

[7] = tested on: Maize weevil [Sitophilus Zeamais (Motschulsky)]; test: Maize weevil insecticidal test; conditions: adult weevils, percent in solution; 48 hours
Outline: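 LC50, in percent of compound in solution, was derived from dosage-mortality curves after 48 h at about 25 °C. Ten adult weevils per container fed on four corn seeds briefly immersed in acetone:water (50:50) solutions of up to 0.01% and dried.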

[8] = tested on: Rice water weevil [Lissorhoptrus oryzophilus (Kuschel)]; test: Rice water weevil insecticidal test; conditions: topical, μg per weevil; 48 hours
Outline: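 Female adult weevils (ten per dose) received 1 μl acetone droplets topically on the ventral abdomen, then were held with rice foliage and wet cotton at about 25 °C. Mortality scored at 48 h; LC50 in μg per weevil from dosage-mortality curves, top dose 2.5 μg per weevil.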

[9] = tested on: Black Bean Aphid [Aphis fabae (Scop.)]; test: Black bean aphid insecticidal test; conditions: percent of test compound in sprayed solution; 48 hours
Experimental: The compounds in Tables 1 and 2 above were tested for insecticidal activity using the following testing procedures. LC50 values, based on the results of these tests and calculated according to dosage-mortality curves, are expressed in Table 3.
Black Bean Aphid [Aphis fabae (Scop.)]:
Nasturtium plants (Tropaeolum sp.) approximately 5 cm tall, were transplanted into sandy loam soil in small cups and infested with 25-50 black bean aphids of mixed ages. Twenty-four hours later they were sprayed to the point of runoff with 50-50 acetone-water solutions of the test compounds. Treated plants were held in the greenhouse and mortality was recorded after 48 hours. Test concentrations ranged from 0.05% downward. The LC-50 value is expressed below in Table 3 under the heading "BBA" in terms of percent of the test compound in the sprayed solution.

Row | SMILES | LC50, HF [1] [µg] | LC50, TBW, C (TBW-C) [2] [%] | LC50, TBW, E (TBW-E) [3] [%] | LC50, BAW [4] [%] | LC50, CL [5] [%] | LC50, LH [6] [%] | LC50, MW [7] [%] | LC50, RWW [8] [µg] | LC50, BBA [9] [%]
1 | CC(C)C(=Nc1ccc(OC(F)(F)F)cc1)OCc1ccc(F)c(Oc2ccc(Cl)cc2)c1 [Compound 323] | > 100 | 0.00065 | 0.045 | 0.0025 | 0.0006 | 0.05 | 0.0075 | 0.16 | –
2 | CC(C)C(=Nc1ccc(OC(F)(F)F)c(Cl)c1)OCc1cc(F)cc(Oc2ccc(F)cc2)c1 [Compound 328] | > 100 | – | > 0.1 | – | 0.03 | – | – | – | > 0.05
3 | CC(C)C(=Nc1ccc(F)c(Cl)c1F)OCc1cccc(Oc2ccc(F)cc2)c1 [Compound 352] | 4.6 | 0.0004 | > 0.1 | > 0.1 | 0.000065 | 0.0004 | 0.0075 | > 2.5 | –
